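Following 48 hours of exposure in 96-well plates, responses at five concentrations were used to interpolate endpoints linearly. Here, GI50 denotes the concentration required for 50% inhibition of growth.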 Active and inactive are the calls of the source. Rule as the data show it: active = GI50 up to about 1.1 µM and inactive = higher.

These results are taken from ChEMBL document CHEMBL1201862, “PubChem BioAssay data set” (2004).

Some test systems named below: BT-549; NCI-H460; RPMI-8226; OVCAR-3; KM12; IGROV-1; A549; MDA-MB-231; M14; NCI/ADR-RES; SK-MEL-2; OVCAR-4; MCF7; EKVX; SK-MEL-28; RXF 393; SK-OV-3; HL-60; A498; OVCAR-5.
What all share (assay): inhibition of tumour cell growth, NCI panel, 48 h

As for `O=c1c2c(nc3[nH]ccn13)CCC2`, the GI50 in the assay with BT-549, with NCI-H460, in the assay on RPMI-8226, in the assay on OVCAR-3, in the assay on KM12 and with IGROV-1 was > 10 µM (inactive) throughout. Further, the GI50 in the assay on A549, in the assay on MDA-MB-231, in the assay with M14, in the assay with NCI/ADR-RES, with SK-MEL-2 and in the assay on OVCAR-4 was > 10 µM (inactive) each time. Moreover, the GI50 in the assay with MCF7, in the assay with EKVX, in the assay with SK-MEL-28, in the assay with RXF 393, with SK-OV-3 and in the assay with HL-60 was > 10 µM (inactive) in each case. In addition, the GI50 is 2.13 µM (inactive) with A498 and > 10 µM (inactive) with OVCAR-5.
Take `CN1C(=O)c2ccccc2OC12C=Cc1c(ccc3ccccc13)O2` (stereo not given): the GI50 in the assay on BT-549 is 5.96 µM (inactive); in the assay on NCI-H460, 6.59 µM (inactive); in the assay with RPMI-8226, 3.02 µM (inactive); in the assay with OVCAR-3 it was 4.03 µM (inactive); with KM12, 2.21 µM (inactive); in the assay on IGROV-1 it was 3.5 µM (inactive). The GI50 is 3.47 µM (inactive) in the assay on A549; 13.1 µM (inactive) in the assay with MDA-MB-231; 3.03 µM (inactive) in the assay on M14; 2.38 µM (inactive) in the assay on NCI/ADR-RES; 3.34 µM (inactive) in the assay with SK-MEL-2; 5.56 µM (inactive) in the assay with OVCAR-4. The GI50 is 4.4 µM (inactive) in the assay with MCF7; 2.32 µM (inactive) with EKVX; 14.2 µM (inactive) in the assay with SK-MEL-28; 3.85 µM (inactive) in the assay with RXF 393; 5.78 µM (inactive) in the assay on SK-OV-3; 2.99 µM (inactive) in the assay with HL-60. For the same molecule, the GI50 was 12.9 µM (inactive) with A498 and 6.47 µM (inactive) in the assay with OVCAR-5.
For the molecule `O=Cc1ccc(-c2cccc([N+](=O)[O-])c2)s1`, the GI50 in the assay with BT-549 was 81.1 µM (inactive); in the assay on NCI-H460 it was > 100 µM (inactive); in the assay on RPMI-8226, 67 µM (inactive); in the assay with OVCAR-3, > 100 µM (inactive); in the assay with KM12, > 100 µM (inactive); with IGROV-1, > 100 µM (inactive). In addition, the GI50 with A549 was > 100 µM (inactive); with MDA-MB-231, > 100 µM (inactive); in the assay with M14 it was > 100 µM (inactive); in the assay with NCI/ADR-RES it was 94.6 µM (inactive); with SK-MEL-2 it was > 100 µM (inactive); in the assay with OVCAR-4, > 100 µM (inactive). Further, the GI50 in the assay with MCF7 was > 100 µM (inactive); with EKVX, 71.4 µM (inactive); in the assay with SK-MEL-28 it was > 100 µM (inactive); with RXF 393, 54.3 µM (inactive); in the assay with SK-OV-3 it was > 100 µM (inactive); in the assay with HL-60 it was 64.4 µM (inactive). Also, the GI50 in the assay with A498 was 16.9 µM (inactive); in the assay with OVCAR-5, > 100 µM (inactive).
On to `CC(=O)Nc1ccc2[nH]c(C(=O)N3CC(CCl)c4c3cc([N+](=O)[O-])c3ccccc43)cc2c1` (stereo not given), for which the GI50 with BT-549 is 3.87 µM (inactive); in the assay on NCI-H460, 12.9 µM (inactive); in the assay on RPMI-8226, 1.02 µM (active); in the assay with OVCAR-3 it was > 100 µM (inactive); with KM12 it was 1.73 µM (inactive); in the assay on IGROV-1 it was 2.92 µM (inactive). For the same molecule, the GI50 was 0.393 µM (active) with A549; > 51.4 µM (inactive) in the assay on MDA-MB-231; 24.2 µM (inactive) in the assay on M14; 4.45 µM (inactive) in the assay on NCI/ADR-RES; 13.8 µM (inactive) in the assay with SK-MEL-2; > 36.3 µM (inactive) in the assay on OVCAR-4. Besides, the GI50 in the assay on MCF7 was 5.25 µM (inactive); with EKVX, 5.09 µM (inactive); in the assay on SK-MEL-28, > 35.6 µM (inactive); with RXF 393 it was 4.74 µM (inactive); in the assay on SK-OV-3, 0.791 µM (active); in the assay on HL-60, 1.01 µM (active). Further, the values for the GI50 in the assay with A498 and with OVCAR-5 were 0.863 µM (active) and 13.1 µM (inactive), respectively.
Turning to `CCOC(=O)c1ccc2c(=O)n3c(C(=O)OCC)ccc3c(=O)n12`, the GI50 with BT-549, in the assay on NCI-H460, in the assay with RPMI-8226, with OVCAR-3, in the assay on KM12 and in the assay with IGROV-1 was > 100 µM (inactive) in each case. For the same molecule, the GI50 with A549, with MDA-MB-231, with M14, in the assay with NCI/ADR-RES, in the assay on SK-MEL-2 and in the assay with OVCAR-4 was > 100 µM (inactive) in each case. Besides, the GI50 with MCF7 was > 100 µM (inactive); with EKVX, > 100 µM (inactive); in the assay on SK-MEL-28, > 100 µM (inactive); in the assay on RXF 393, > 100 µM (inactive); in the assay on SK-OV-3, 68.2 µM (inactive); in the assay on HL-60, > 100 µM (inactive). Moreover, the GI50 in the assay with A498 and in the assay on OVCAR-5 was > 100 µM (inactive) each time.
Regarding `N#CC(/N=N/c1ccccc1)c1nc2ccccc2o1` (stereo not given), the GI50 is 20.7 µM (inactive) in the assay on BT-549; 96.4 µM (inactive) in the assay with NCI-H460; 23.6 µM (inactive) with RPMI-8226; 25.4 µM (inactive) in the assay on OVCAR-3; 49.7 µM (inactive) with KM12; 16.1 µM (inactive) with IGROV-1. Also, the GI50 is 27.4 µM (inactive) in the assay with A549; 20.8 µM (inactive) in the assay on MDA-MB-231; 44.8 µM (inactive) in the assay on M14; 23.8 µM (inactive) in the assay on NCI/ADR-RES; 25.4 µM (inactive) in the assay with SK-MEL-2; 11.2 µM (inactive) in the assay on OVCAR-4. The GI50 in the assay on MCF7 is 59.3 µM (inactive); in the assay with EKVX it was 20.2 µM (inactive); with SK-MEL-28 it was > 100 µM (inactive); with RXF 393, 22.6 µM (inactive); in the assay with SK-OV-3, 23.7 µM (inactive); in the assay on HL-60, > 100 µM (inactive). Also, the GI50 is 76.9 µM (inactive) in the assay with A498 and 56.5 µM (inactive) in the assay on OVCAR-5.
Regarding `Oc1c(C(Nc2ccccn2)c2ccccc2)ccc2cccnc12` (stereo not given), the GI50 in the assay on BT-549 was 5.25 µM (inactive); in the assay on NCI-H460, 2.11 µM (inactive); with RPMI-8226, 2.56 µM (inactive); in the assay on OVCAR-3, 2.51 µM (inactive); with KM12, 4.59 µM (inactive); in the assay on IGROV-1 it was 3.33 µM (inactive). In addition, the GI50 in the assay with A549 is 4.35 µM (inactive); with MDA-MB-231, 3.08 µM (inactive); in the assay on M14, 3.08 µM (inactive); in the assay on NCI/ADR-RES it was 1.82 µM (inactive); with SK-MEL-2 it was 3.55 µM (inactive); in the assay on OVCAR-4, 3.5 µM (inactive). Besides, the GI50 in the assay on MCF7 is 4.04 µM (inactive); in the assay on EKVX it was 3.01 µM (inactive); in the assay with SK-MEL-28, 6.22 µM (inactive); in the assay with RXF 393, 3.84 µM (inactive); with SK-OV-3 it was 9.4 µM (inactive); in the assay on HL-60 it was 2.28 µM (inactive). Besides, the GI50 with A498 is 10.2 µM (inactive); in the assay on OVCAR-5, 7.78 µM (inactive).
Regarding `CCOC(=O)c1c(N/C(S)=N/c2ccccc2)sc2c1CCOC2`, the GI50 was 2.08 µM (inactive) in the assay on BT-549; 40.2 µM (inactive) with NCI-H460; 55.5 µM (inactive) in the assay with RPMI-8226; 87.9 µM (inactive) with OVCAR-3; 69.5 µM (inactive) in the assay on KM12; 27.5 µM (inactive) with IGROV-1. The GI50 in the assay with A549 was 53.1 µM (inactive); in the assay with MDA-MB-231, > 100 µM (inactive); in the assay with M14, 39.1 µM (inactive); in the assay on NCI/ADR-RES it was 60.4 µM (inactive); with SK-MEL-2, 74.6 µM (inactive); in the assay on OVCAR-4, 61.5 µM (inactive). In addition, the GI50 was 33 µM (inactive) in the assay with MCF7; 79.6 µM (inactive) in the assay with EKVX; 27.5 µM (inactive) in the assay with SK-MEL-28; 69.2 µM (inactive) in the assay on RXF 393; 85.9 µM (inactive) in the assay with SK-OV-3; 24 µM (inactive) in the assay with HL-60. The GI50 was 37 µM (inactive) in the assay on A498 and 38.4 µM (inactive) in the assay with OVCAR-5.
Turning to `COc1ccc2c(c1)CC[C@@H]1[C@@H]2CC[C@]2(C)[C@@H](O)/C(=C/c3ccncc3)C[C@@H]12`, the GI50 is 15.7 µM (inactive) in the assay on BT-549; 14.2 µM (inactive) with NCI-H460; 3.69 µM (inactive) with RPMI-8226; 18.5 µM (inactive) with OVCAR-3; 9.71 µM (inactive) in the assay with KM12; 14.9 µM (inactive) in the assay with IGROV-1. The GI50 is 9.84 µM (inactive) in the assay with A549; 14.2 µM (inactive) in the assay with MDA-MB-231; 11.3 µM (inactive) in the assay on M14; 15 µM (inactive) with NCI/ADR-RES; 16.3 µM (inactive) in the assay with SK-MEL-2; 23.2 µM (inactive) with OVCAR-4. Besides, the GI50 is 16.6 µM (inactive) in the assay on MCF7; 18.5 µM (inactive) in the assay with EKVX; 15.3 µM (inactive) in the assay on SK-MEL-28; 4.25 µM (inactive) in the assay with RXF 393; 21.2 µM (inactive) with SK-OV-3; 7.98 µM (inactive) in the assay with HL-60. The GI50 is 17.5 µM (inactive) in the assay on A498 and 12.5 µM (inactive) with OVCAR-5.
As to `CC1=C/C(=N\NC(N)=S)C(C(O)(C(F)(F)F)C(F)(F)F)C(C)(C)C1` (stereo not given), the GI50 in the assay with BT-549, with NCI-H460, in the assay with RPMI-8226, with OVCAR-3, in the assay on KM12 and in the assay on IGROV-1 was > 10 µM (inactive) each time. For the same molecule, the GI50 in the assay with A549, with MDA-MB-231, with M14, with NCI/ADR-RES, with SK-MEL-2 and in the assay on OVCAR-4 was > 10 µM (inactive) in each case. Further, the GI50 with MCF7, in the assay on EKVX, in the assay on SK-MEL-28, in the assay with RXF 393, with SK-OV-3 and with HL-60 was > 10 µM (inactive) each time. Besides, the GI50 in the assay with A498 and in the assay with OVCAR-5 was > 10 µM (inactive) each time.
